Measurements: patent publication US12077503B2, “Substituted cyclic amides and their use as herbicides” (FMC CORPORATION, priority 2015, dated 2024)

How the values were obtained:
Assay type in all cases: in vivo
[1] = system: green foxtail (Setaria viridis); assay: Test A preemergence; settings: Preemergence
Procedure, shortened: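 Ratings of 0 (no effect) to 100 (complete control) come from visual comparison with untreated controls roughly 10 d after treatment. Test chemicals, formulated in a non-phytotoxic solvent mixture with surfactant, were applied either as a preemergence directed soil spray on seeded soil or postemergence to one- to two-leaf plants 2 to 10 cm tall.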

Kochia (Kochia scoparia) = assay: Test D preemergence; settings: scale 0 to 100
Procedure, shortened: (§1)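 Seeds sown in silt loam soil and sprayed preemergence with test chemicals in a non-phytotoxic solvent mixture containing surfactant. After about 21 d in a controlled growth environment, plants were compared with untreated controls and rated visually from 0 (no effect) to 100 (complete control).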

[2] = system: barley, spring (spring barley, Hordeum vulgare); assay: Test D preemergence; settings: scale 0 to 100
Procedure, shortened: as §1

[3] = system: field poppy (Papaver rhoeas); assay: Test D preemergence; settings: scale 0 to 100
Procedure, shortened: as §1

[4] = system: pigweed (Amaranthus retroflexus); assay: Test D preemergence; settings: scale 0 to 100
Procedure, shortened: as §1

[5] = system: arrowleaf Sida (Sida rhombifolia); assay: Test E preemergence; settings: scale 0 to 100
Text: (§2) Seeds of plant species selected from corn (Zea mays), soybean (Glycine max), velvetleaf (Abutilon theophrasti), lambsquarters (Chenopodium album), poinsettia, wild (wild poinsettia, Euphorbia heterophylla), pigweed, palmer (palmer pigweed, Amaranthus palmeri), waterhemp (common waterhemp, Amaranthus rudis), surinam grass (Brachiaria decumbens), crabgrass, large (large crabgrass, Digitaria sangumnalis), crabgrass, Brazil (Brazilian crabgrass, Digitaria horizontalis), Panicum, fall (fall Panicum, Panicum dichotomiflorum), foxtail, giant (giant foxtail, Setaria faberii), foxtail, green (green foxtail, Setaria viridis), goosegrass (Eleusine indica), johnsongrass (Sorghum halepense), ragweed (common ragweed, Ambrosia elatior), barnyardgrass (Echinochloa crus-galli), sandbur (southern sandbur, Cenchrus echinatus), arrowleaf Sida (Sida rhombifolia), ryegrass, Italian (Italian ryegrass, Lolium multiflorum), dayflower, VA (Virginia dayflower, Commelina virginica), field bindweed (Convolvulus arvensis), morningglory (Ipomoea coccinea), nightshade (eastern black nightshade, Solanum ptycanthum), Kochia (Kochia scoparia), nutsedge, yellow (yellow nutsedge, Cyperus esculentus), horseweed (Conyza canadensis), and beggarticks (hairy beggarticks, Bidens pilosa), were planted into a silt loam soil and treated preemergence with test chemicals formulated in a non-phytotoxic solvent mixture which included a surfactant.
(§3) At the same time, plants selected from these crop and weed species were planted in pots containing Sunshine Redi-Earth planting medium comprising spaghnum peat moss, vermiculite, starter nutrients and dolomitic limestone and treated with postemergence applications of a test chemical formulated in the same manner. Plants ranged in height from 2 to 18 cm (1- to 4-leaf stage) for postemergence treatments. Treated plants and controls were maintained in a greenhouse for 14 to 21 d, after which time all species were compared to controls and visually evaluated. Plant response ratings, summarized in Table E, are based on a scale of 0 to 100 where 0 is no effect and 100 is complete control. A dash (-) response means no test result.

[6] = system: barnyardgrass (Echinochloa crus-galli); assay: Test E preemergence; settings: scale 0 to 100
Text: as §2, §3

[7] = system: foxtail, giant (giant foxtail, Setaria faberii); assay: Test E preemergence; settings: scale 0 to 100
Text: as §2, §3

[8] = system: foxtail, green (green foxtail, Setaria viridis); assay: Test E preemergence; settings: scale 0 to 100
Text: as §2, §3

[9] = system: johnsongrass (Sorghum halepense); assay: Test E preemergence; settings: scale 0 to 100
Text: as §2, §3

[10] = system: morningglory (Ipomoea coccinea); assay: Test E preemergence; settings: scale 0 to 100
Text: as §2, §3

[11] = system: ragweed (common ragweed, Ambrosia elatior); assay: Test E preemergence; settings: scale 0 to 100
Text: as §2, §3

In the case of `CN1C[C@H](c2csc3c2CCC(F)(F)C3)[C@@H](C(=O)Nc2ccccc2S(C)(=O)=O)C1=O` (racemic) [Compound 1367], the “Foxtail, Green plant response rating” value ([1]; 31 g ai/ha, 0 to 100 scale where 0 is no effect and 100 is complete control) is reported as 0 and the “Plant response rating, Foxtail, Green” value ([1]; 125 g ai/ha, 0 to 100 scale (0 no effect, 100 complete control)) is reported as 60.
In the case of `CN1CC(c2ccc(C(F)(F)F)cc2)C(C(=O)Nc2ccccc2S(C)(=O)=O)C1=O` (stereo not drawn) [Compound 624], the “Plant response rating: Kochia” value (Kochia (Kochia scoparia); 31 g ai/ha) is reported as 0, the “Plant response rating: Kochia” value (Kochia (Kochia scoparia); 62 g ai/ha) is reported as 5 and the “Plant response rating: Kochia” value (Kochia (Kochia scoparia); 125 g ai/ha) is reported as 15. The “Plant response rating: Kochia” value (Kochia (Kochia scoparia); 250 g ai/ha) was 85, the “Plant response rating: Barley, Spring” value ([2]; 31 g ai/ha) was 0 and the “Plant response rating: Barley, Spring” value ([2]; 62 g ai/ha) was 0. For the same molecule, the “Plant response rating: Barley, Spring” value ([2]; 125 g ai/ha) was 5, the “Plant response rating: Barley, Spring” value ([2]; 250 g ai/ha) was 40 and the “Plant response rating: Field Poppy” value ([3]; 31 g ai/ha) was 15. For the same molecule, the “Plant response rating: Field Poppy” value ([3]; 62 g ai/ha) was 25, the “Plant response rating: Field Poppy” value ([3]; 125 g ai/ha) was 100 and the “Plant response rating: Field Poppy” value ([3]; 250 g ai/ha) was 100. For the same molecule, the “Plant response rating: Pigweed” value ([4]; 31 g ai/ha) was 35, the “Plant response rating: Pigweed” value ([4]; 62 g ai/ha) was 80 and the “Plant response rating: Pigweed” value ([4]; 125 g ai/ha) was 95. For the same molecule, the “Plant response rating: Pigweed” value ([4]; 250 g ai/ha) was 98, the “Plant response rating: Arrowleaf Sida” value ([5]; 31 g ai/ha) was 50 and the “Plant response rating: Arrowleaf Sida” value ([5]; 62 g ai/ha) was 50. For the same molecule, the “Plant response rating: Arrowleaf Sida” value ([5]; 125 g ai/ha) was 40, the “Plant response rating: Arrowleaf Sida” value ([5]; 250 g ai/ha) was 60 and the “Plant response rating: Barnyardgrass” value ([6]; 31 g ai/ha) was 0. The “Plant response rating: Barnyardgrass” value ([6]; 62 g ai/ha) was 30, the “Plant response rating: Barnyardgrass” value ([6]; 125 g ai/ha) was 50 and the “Plant response rating: Barnyardgrass” value ([6]; 250 g ai/ha) was 65. The “Plant response rating: Foxtail, Giant” value ([7]; 31 g ai/ha) was 20, the “Plant response rating: Foxtail, Giant” value ([7]; 62 g ai/ha) was 50 and the “Plant response rating: Foxtail, Giant” value ([7]; 125 g ai/ha) was 70. For the same molecule, the “Plant response rating: Foxtail, Giant” value ([7]; 250 g ai/ha) was 85, the “Plant response rating: Foxtail, Green” value ([8]; 31 g ai/ha) was 20 and the “Plant response rating: Foxtail, Green” value ([8]; 62 g ai/ha) was 20. For the same molecule, the “Plant response rating: Foxtail, Green” value ([8]; 125 g ai/ha) was 65, the “Plant response rating: Foxtail, Green” value ([8]; 250 g ai/ha) was 75 and the “Plant response rating: Johnsongrass” value ([9]; 31 g ai/ha) was 0. The “Plant response rating: Johnsongrass” value ([9]; 62 g ai/ha) was 0, the “Plant response rating: Johnsongrass” value ([9]; 125 g ai/ha) was 35 and the “Plant response rating: Morningglory” value ([10]; 31 g ai/ha) was 10. The “Plant response rating: Morningglory” value ([10]; 62 g ai/ha) was 20, the “Plant response rating: Morningglory” value ([10]; 125 g ai/ha) was 50 and the “Plant response rating: Morningglory” value ([10]; 250 g ai/ha) was 40. The “Plant response rating: Ragweed” value ([11]; 31 g ai/ha) was 20, the “Plant response rating: Ragweed” value ([11]; 62 g ai/ha) was 20 and the “Plant response rating: Ragweed” value ([11]; 125 g ai/ha) was 30. For the same molecule, the “Plant response rating: Ragweed” value ([11]; 250 g ai/ha) was 30.
In the case of `CN1CC(c2cccc(C(F)(F)F)c2)C(C(=O)Nc2cccc(F)c2F)C1=O` (stereo not drawn) [Compound 636], the “Plant response rating: Kochia” value (Kochia (Kochia scoparia); 31 g ai/ha) is reported as 5, the “Plant response rating: Kochia” value (Kochia (Kochia scoparia); 62 g ai/ha) is reported as 25 and the “Plant response rating: Kochia” value (Kochia (Kochia scoparia); 125 g ai/ha) is reported as 75. For the same molecule, the “Plant response rating: Kochia” value (Kochia (Kochia scoparia); 250 g ai/ha) was 75, the “Plant response rating: Barley, Spring” value ([2]; 31 g ai/ha) was 35 and the “Plant response rating: Barley, Spring” value ([2]; 62 g ai/ha) was 55. The “Plant response rating: Barley, Spring” value ([2]; 125 g ai/ha) was 60, the “Plant response rating: Barley, Spring” value ([2]; 250 g ai/ha) was 75 and the “Plant response rating: Field Poppy” value ([3]; 31 g ai/ha) was 90. The “Plant response rating: Field Poppy” value ([3]; 62 g ai/ha) was 95, the “Plant response rating: Field Poppy” value ([3]; 125 g ai/ha) was 100 and the “Plant response rating: Field Poppy” value ([3]; 250 g ai/ha) was 100. The “Plant response rating: Pigweed” value ([4]; 31 g ai/ha) was 0, the “Plant response rating: Pigweed” value ([4]; 62 g ai/ha) was 10 and the “Plant response rating: Pigweed” value ([4]; 125 g ai/ha) was 50. The “Plant response rating: Pigweed” value ([4]; 250 g ai/ha) was 85, the “Plant response rating: Arrowleaf Sida” value ([5]; 31 g ai/ha) was 35 and the “Plant response rating: Arrowleaf Sida” value ([5]; 62 g ai/ha) was 65. The “Plant response rating: Arrowleaf Sida” value ([5]; 125 g ai/ha) was 80, the “Plant response rating: Arrowleaf Sida” value ([5]; 250 g ai/ha) was 90 and the “Plant response rating: Barnyardgrass” value ([6]; 31 g ai/ha) was 95. For the same molecule, the “Plant response rating: Barnyardgrass” value ([6]; 62 g ai/ha) was 95, the “Plant response rating: Barnyardgrass” value ([6]; 125 g ai/ha) was 98 and the “Plant response rating: Barnyardgrass” value ([6]; 250 g ai/ha) was 98. For the same molecule, the “Plant response rating: Foxtail, Giant” value ([7]; 31 g ai/ha) was 95, the “Plant response rating: Foxtail, Giant” value ([7]; 62 g ai/ha) was 95 and the “Plant response rating: Foxtail, Giant” value ([7]; 125 g ai/ha) was 95. The “Plant response rating: Foxtail, Giant” value ([7]; 250 g ai/ha) was 95, the “Plant response rating: Foxtail, Green” value ([8]; 31 g ai/ha) was 95 and the “Plant response rating: Foxtail, Green” value ([8]; 62 g ai/ha) was 95. The “Plant response rating: Foxtail, Green” value ([8]; 125 g ai/ha) was 95, the “Plant response rating: Foxtail, Green” value ([8]; 250 g ai/ha) was 98 and the “Plant response rating: Johnsongrass” value ([9]; 31 g ai/ha) was 90. For the same molecule, the “Plant response rating: Johnsongrass” value ([9]; 62 g ai/ha) was 95, the “Plant response rating: Johnsongrass” value ([9]; 125 g ai/ha) was 95 and the “Plant response rating: Johnsongrass” value ([9]; 250 g ai/ha) was 98. The “Plant response rating: Morningglory” value ([10]; 31 g ai/ha) was 0, the “Plant response rating: Morningglory” value ([10]; 62 g ai/ha) was 0 and the “Plant response rating: Morningglory” value ([10]; 125 g ai/ha) was 0. For the same molecule, the “Plant response rating: Morningglory” value ([10]; 250 g ai/ha) was 0, the “Plant response rating: Ragweed” value ([11]; 31 g ai/ha) was 0 and the “Plant response rating: Ragweed” value ([11]; 250 g ai/ha) was 0.
